Assay results reported in patent US12252524B2, “GIP/GLP1 co-agonist compounds” (Eli Lilly and Company, priority 2018, dated 2025).
Where two headings read alike, the source gives them in different places. Numbered stars: 1 amine (or outer) side, 2 acyl side, 3 side chain; on linkers, the order of the positions; unused ones are H or OH. Square brackets hold non-standard residues; d marks the D form. Side chains are listed from the residue outwards. Peptide text beside a SMILES is read from it. * marks the point of attachment. C20 diacid = O=C(O)CCCCCCCCCCCCCCCCCCC(=O)*; C18 diacid = O=C(O)CCCCCCCCCCCCCCCCC(=O)*; αMePhe(2-F) = C[C@](N)(Cc1ccccc1F)C(=O)O; γGlu = O=C(O)[C@H](CCC(=O)[*:2])N[*:1]; αMeL = CC(C)C[C@](C)(N)C(=O)O; Orn = NCCC[C@H](N)C(=O)O; AEEA = NCCOCCOCC(=O)O; Aib = CC(C)(N)C(=O)O

Key:
[1] = biological target: T1, human Gcg receptor (Homo sapiens, UniProt P47871); assay: [125I]-Glucagon binding (SPA), human Gcg receptor
T1 construct: expressed in transfected cells; crude membranes
Procedure, shortened: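 Scintillation counts are taken after membranes and WGA beads incubate and settle for 12 hours at room temperature. Buffer is 25 mM HEPES, pH 7.4, with CaCl2, MgCl2, bacitracin and Tween-20. Ki values, from four-parameter IC50 fits, are geometric means over independent days.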

[2] = biological target: T2, human GLP-1R (Homo sapiens, UniProt P43220); assay: GLP-1R CHO cell β-arrestin recruitment assay; format: cell-based; parameters: host or cells: CHO-K1 PathHunter cells, assay-ready frozen; details: for hGLP1R B-Arrestin2 % Top: normalized to GLP-1 maximum control
Procedure, shortened: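 PathHunter CHO-K1 cells with ProLink-tagged human GLP-1R and enzyme-acceptor-tagged β-arrestin-2 treated with serially diluted peptides in assay buffer containing 0.1% hydrolyzed casein, 90 min at 37 °C.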

[3] = biological target: human GLP-1 receptor (GLP-1R) (Homo sapiens, UniProt P43220); assay: cAMP pharmacological functional assay in presence of casein, hGLP-1R; format: cell-based
[4] = biological target: T2, human GLP-1R; assay: GLP-1R HEK293 cell membrane [35S]GTPγS binding assay; format: biochemical; parameters: expressed in transfected cells; host or cells: HEK293 cells expressing human GLP-1R; membranes
Procedure, shortened: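 Membranes from HEK293 cells expressing the receptor incubated with peptide and […] [35S]GTPγS in HEPES pH 7.4 buffer with NaCl, MgCl2, saponin and BSA, 30 min at room temperature. Gαs-bound label captured by anti-Gαs antibody/SPA beads and counted; EC50 from four-parameter logistic fit.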

[5] = biological target: T3, gastric inhibitory peptide receptor (GIPR) (Homo sapiens, UniProt P48546); assay: cAMP pharmacological functional assay in presence of casein, hGIPR; format: cell-based
T3 sequence (P48546 22-466): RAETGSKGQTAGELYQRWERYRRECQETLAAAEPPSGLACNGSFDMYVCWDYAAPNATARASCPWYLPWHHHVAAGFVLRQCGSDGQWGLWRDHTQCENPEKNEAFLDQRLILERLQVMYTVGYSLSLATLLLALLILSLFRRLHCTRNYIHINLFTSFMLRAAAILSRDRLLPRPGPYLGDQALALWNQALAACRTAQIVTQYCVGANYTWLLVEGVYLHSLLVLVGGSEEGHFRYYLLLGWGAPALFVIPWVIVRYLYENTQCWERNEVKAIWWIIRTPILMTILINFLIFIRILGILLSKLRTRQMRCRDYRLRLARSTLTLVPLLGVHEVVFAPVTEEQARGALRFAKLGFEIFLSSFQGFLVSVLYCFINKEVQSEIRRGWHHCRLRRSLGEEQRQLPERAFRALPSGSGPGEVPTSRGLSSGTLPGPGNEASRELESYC

T2 sequence (P43220 24-463): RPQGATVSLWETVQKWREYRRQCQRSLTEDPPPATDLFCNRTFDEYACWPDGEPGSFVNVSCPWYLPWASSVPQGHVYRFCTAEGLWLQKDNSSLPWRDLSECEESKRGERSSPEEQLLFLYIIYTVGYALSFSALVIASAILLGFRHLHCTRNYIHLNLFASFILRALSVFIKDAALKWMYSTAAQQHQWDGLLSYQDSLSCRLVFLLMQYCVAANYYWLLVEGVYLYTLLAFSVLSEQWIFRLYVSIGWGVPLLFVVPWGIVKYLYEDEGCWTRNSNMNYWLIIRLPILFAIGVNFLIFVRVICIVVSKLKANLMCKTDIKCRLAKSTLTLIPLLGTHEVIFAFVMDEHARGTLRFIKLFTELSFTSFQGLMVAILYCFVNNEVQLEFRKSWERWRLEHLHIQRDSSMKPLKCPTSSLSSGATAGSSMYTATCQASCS
Sequence of human GLP-1 receptor (GLP-1R) (P43220 24-463): as above
T1 sequence (P47871 26-477): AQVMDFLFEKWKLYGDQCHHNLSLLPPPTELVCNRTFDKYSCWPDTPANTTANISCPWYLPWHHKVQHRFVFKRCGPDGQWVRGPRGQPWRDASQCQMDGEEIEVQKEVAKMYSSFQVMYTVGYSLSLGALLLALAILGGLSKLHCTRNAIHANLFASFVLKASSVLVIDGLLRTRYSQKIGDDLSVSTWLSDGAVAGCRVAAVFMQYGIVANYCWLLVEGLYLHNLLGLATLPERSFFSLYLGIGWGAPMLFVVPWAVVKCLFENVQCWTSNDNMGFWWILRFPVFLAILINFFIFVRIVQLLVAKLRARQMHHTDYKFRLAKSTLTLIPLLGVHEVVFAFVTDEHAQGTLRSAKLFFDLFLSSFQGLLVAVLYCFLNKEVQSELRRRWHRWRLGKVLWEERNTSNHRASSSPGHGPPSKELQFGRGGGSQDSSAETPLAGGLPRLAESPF

Compound | Ki [1] [nM] | EC50 [2] [µM] | hGLP1R B-Arrestin2 % Top [2] [%] | EC50 [3] [nM] | EC50 [4] [nM] | EC50 [5] [nM] | Ki ([1]; read-out: hGLcgR Ki, nM (SEM, n)) [nM] | EC50 ([2]; CHO-K1 cells, PathHunter β-arrestin-2 recruitment, 0.1% casein, read-out: hGLP1R B-Arrestin2 Rel EC50 uM (SEM, n)) [µM] | EC50 ([3]; HEK293 cells expressing hGLP-1R, 0.1% Casein, geometric mean, read-out: hGLP1R cAMP Rel EC50 nM (SEM, n)) [nM] | EC50 ([4]; HEK293 cell membranes expressing human GLP-1R, [35S]GTPγS binding, read-out: hGLP1R GTPgS Rel EC50 nM (SEM, n)) [nM] | EC50 ([5]; HEK293 cells expressing hGIPR, 0.1% Casein, geometric mean, read-out: hGIPR cAMP Rel EC50 nM (SEM, n)) [nM]
CC[C@H](C)[C@H](NC(=O)[C@H](CC(C)C)NC(=O)[C@H](Cc1ccc(O)cc1)NC(=O)[C@@H](CCC(=O)O)NC(=O)[C@@H](NC(=O)[C@H](Cc1ccccc1)NC(=O)[C@H](CCC(=O)O)NC(=O)C(C)(C)NC(=O)[C@H](CCC(N)=O)NC(=O)[C@H](C)NC(=O)[C@H](CCCCNC(=O)COCCOCCNC(=O)COCCOCCNC(=O)CC[C@H](NC(=O)CCCCCCCCCCCCCCCCCCC(=O)O)C(=O)O)NC(=O)[C@H](CCC(=O)O)NC(=O)[C@H](CC(=O)O)NC(=O)[C@H](CC(C)C)NC(=O)[C@](C)(CC(C)C)NC(=O)[C@@H](NC(=O)[C@H](CO)NC(=O)[C@H](Cc1ccc(O)cc1)NC(=O)[C@H](CC(=O)O)NC(=O)[C@H](CO)NC(=O)[C@@H](NC(=O)[C@](C)(Cc1ccccc1F)NC(=O)[C@@H](NC(=O)CNC(=O)[C@H](CCC(=O)O)NC(=O)C(C)(C)NC(=O)[C@@H](N)Cc1ccc(O)cc1)[C@@H](C)O)[C@@H](C)O)[C@@H](C)CC)[C@@H](C)CC)C(=O)N[C@@H](CCC(=O)O)C(=O)NCC(=O)NCC(=O)N1CCC[C@H]1C(=O)N[C@@H](CO)C(=O)N[C@@H](CO)C(=O)NCC(=O)N[C@@H](C)C(=O)N1CCC[C@H]1C(=O)N1CCC[C@H]1C(=O)N1CCC[C@H]1C(=O)N[C@@H](CO)C(N)=O [Example 1] (H-Y[Aib]EGT[αMePhe(2-F)]TSDYSI[αMeL]LDEK([AEEA-AEEA-γGlu-C20 diacid])AQ[Aib]EFI[dE]YLIEGGPSSGAPPPS-NH2) | 207 | 0.005 | 105 | 0.041 | 0.235 | 0.0356 |  |  |  |  | 
CC[C@H](C)[C@H](NC(=O)[C@H](CC(C)C)NC(=O)[C@H](Cc1ccc(O)cc1)NC(=O)[C@@H](CCC(=O)O)NC(=O)[C@@H](NC(=O)[C@H](Cc1ccccc1)NC(=O)[C@H](CCC(=O)O)NC(=O)C(C)(C)NC(=O)[C@H](CCC(N)=O)NC(=O)[C@H](C)NC(=O)[C@H](CCCCNC(=O)COCCOCCNC(=O)COCCOCCNC(=O)CC[C@H](NC(=O)CCCCCCCCCCCCCCCCC(=O)O)C(=O)O)NC(=O)[C@H](CCCN)NC(=O)[C@H](CC(=O)O)NC(=O)[C@H](CC(C)C)NC(=O)[C@](C)(CC(C)C)NC(=O)[C@@H](NC(=O)[C@H](CO)NC(=O)[C@H](Cc1ccc(O)cc1)NC(=O)[C@H](CC(=O)O)NC(=O)[C@H](CO)NC(=O)[C@@H](NC(=O)[C@](C)(Cc1ccccc1F)NC(=O)[C@@H](NC(=O)CNC(=O)[C@H](CCC(=O)O)NC(=O)C(C)(C)NC(=O)[C@@H](N)Cc1ccc(O)cc1)[C@@H](C)O)[C@@H](C)O)[C@@H](C)CC)[C@@H](C)CC)C(=O)N[C@@H](CCC(=O)O)C(=O)NCC(=O)NCC(=O)N1CCC[C@H]1C(=O)N[C@@H](CO)C(=O)N[C@@H](CO)C(=O)NCC(=O)N[C@@H](C)C(=O)N1CCC[C@H]1C(=O)N1CCC[C@H]1C(=O)N1CCC[C@H]1C(=O)N[C@@H](CO)C(N)=O [Example 2] (H-Y[Aib]EGT[αMePhe(2-F)]TSDYSI[αMeL]LD[Orn]K([AEEA-AEEA-γGlu-C18 diacid])AQ[Aib]EFI[dE]YLIEGGPSSGAPPPS-NH2; N-terminus assumed) | 361 | 0.00882 | 96.1 | 0.0441 | 0.642 | 0.0339 |  |  |  |  | 
CC[C@H](C)[C@H](NC(=O)[C@H](CC(C)C)NC(=O)[C@H](Cc1ccc(O)cc1)NC(=O)[C@@H](CCC(=O)O)NC(=O)[C@@H](NC(=O)[C@H](Cc1ccccc1)NC(=O)[C@H](CCC(=O)O)NC(=O)C(C)(C)NC(=O)[C@H](CCC(N)=O)NC(=O)[C@H](C)NC(=O)[C@H](CCCCNC(=O)COCCOCCNC(=O)COCCOCCNC(=O)CC[C@H](NC(=O)CCCCCCCCCCCCCCCCCCC(=O)O)C(=O)O)NC(=O)[C@H](CCCN)NC(=O)[C@H](CC(=O)O)NC(=O)[C@H](CC(C)C)NC(=O)[C@](C)(CC(C)C)NC(=O)[C@@H](NC(=O)[C@H](CO)NC(=O)[C@H](Cc1ccc(O)cc1)NC(=O)[C@H](CC(=O)O)NC(=O)[C@H](CO)NC(=O)[C@@H](NC(=O)[C@](C)(Cc1ccccc1F)NC(=O)[C@@H](NC(=O)CNC(=O)[C@H](CCC(=O)O)NC(=O)C(C)(C)NC(=O)[C@@H](N)Cc1ccc(O)cc1)[C@@H](C)O)[C@@H](C)O)[C@@H](C)CC)[C@@H](C)CC)C(=O)N[C@@H](CCC(=O)O)C(=O)NCC(=O)NCC(=O)N1CCC[C@H]1C(=O)N[C@@H](CO)C(=O)N[C@@H](CO)C(=O)NCC(=O)N[C@@H](C)C(=O)N1CCC[C@H]1C(=O)N1CCC[C@H]1C(=O)N1CCC[C@H]1C(=O)N[C@@H](CO)C(N)=O [Example 3] | 242 |  |  | 0.0338 | 0.421 | 0.0411 |  |  |  |  | 
CC[C@H](C)[C@H](NC(=O)[C@H](CC(C)C)NC(=O)[C@](C)(Cc1ccc(O)cc1)NC(=O)[C@@H](CCC(=O)O)NC(=O)[C@@H](NC(=O)[C@H](Cc1ccccc1)NC(=O)[C@H](CCC(=O)O)NC(=O)C(C)(C)NC(=O)[C@H](CCC(N)=O)NC(=O)[C@H](C)NC(=O)[C@H](CCCCNC(=O)COCCOCCNC(=O)COCCOCCNC(=O)CC[C@H](NC(=O)CCCCCCCCCCCCCCCCC(=O)O)C(=O)O)NC(=O)[C@H](CCCN)NC(=O)[C@H](CC(=O)O)NC(=O)[C@H](CC(C)C)NC(=O)[C@](C)(CC(C)C)NC(=O)[C@@H](NC(=O)[C@H](CO)NC(=O)[C@H](Cc1ccncc1)NC(=O)[C@H](CC(=O)O)NC(=O)[C@H](CO)NC(=O)[C@@H](NC(=O)[C@](C)(Cc1ccccc1F)NC(=O)[C@@H](NC(=O)CNC(=O)[C@H](CCC(=O)O)NC(=O)C(C)(C)NC(=O)[C@@H](N)Cc1ccc(O)cc1)[C@@H](C)O)[C@@H](C)O)[C@@H](C)CC)[C@@H](C)CC)C(=O)N[C@@H](CCC(=O)O)C(=O)NCC(=O)NCC(=O)N1CCC[C@H]1C(=O)N[C@@H](CO)C(=O)N[C@@H](CO)C(=O)NCC(=O)N[C@@H](C)C(=O)N1CCC[C@H]1C(=O)N1CCC[C@H]1C(=O)N1CCC[C@H]1C(=O)N[C@@H](CO)C(N)=O [Example 4] | 686 | 0.0048 | 92.4 | 0.0297 | 0.245 | 0.0272 |  |  |  |  | 
CC[C@H](C)[C@H](NC(=O)[C@H](CC(C)C)NC(=O)[C@H](Cc1ccc(O)cc1)NC(=O)[C@H](CCC(=O)O)NC(=O)[C@@H](NC(=O)[C@H](Cc1ccccc1)NC(=O)[C@H](C)NC(=O)C(C)(C)NC(=O)[C@H](CCC(N)=O)NC(=O)[C@H](C)NC(=O)[C@H](CCCCNC(=O)COCCOCCNC(=O)COCCOCCNC(=O)CC[C@H](NC(=O)CCCCCCCCCCCCCCCCCCC(=O)O)C(=O)O)NC(=O)[C@H](CCCCN)NC(=O)[C@H](CC(=O)O)NC(=O)[C@H](CC(C)C)NC(=O)[C@H](CC(C)C)NC(=O)[C@@H](NC(=O)[C@H](CO)NC(=O)[C@H](Cc1ccc(O)cc1)NC(=O)[C@H](CC(=O)O)NC(=O)[C@H](CO)NC(=O)[C@@H](NC(=O)[C@H](Cc1ccccc1)NC(=O)[C@@H](NC(=O)CNC(=O)[C@H](CCC(=O)O)NC(=O)C(C)(C)NC(=O)[C@@H](N)Cc1ccc(O)cc1)[C@@H](C)O)[C@@H](C)O)[C@@H](C)CC)[C@@H](C)CC)C(=O)N[C@@H](C)C(=O)NCC(=O)NCC(=O)N1CCC[C@H]1C(=O)N[C@@H](CO)C(=O)N[C@@H](CO)C(=O)NCC(=O)N[C@@H](C)C(=O)N1CCC[C@H]1C(=O)N1CCC[C@H]1C(=O)N1CCC[C@H]1C(=O)N[C@@H](CO)C(N)=O [Example 288] (H-Y[Aib]EGTFTSDYSILLDKK([AEEA-AEEA-γGlu-C20 diacid])AQ[Aib]AFIEYLIAGGPSSGAPPPS-NH2; N-terminus assumed) |  |  | 21.3 |  |  |  | 345 | 0.00674 | 0.172 | 0.666 | 0.0732
